SMILES strings stand for the structures.

The record followed here is patent publication US11229623B2 (GlaxoSmithKline Intellectual Property (No.2) Limited, priority 2016, dated 2022).

This test deals with T1, human TRPV4 (Homo sapiens, UniProt Q9HBA0).
T1 construct: expressed in transfected cells; host or cells: BHK/AC9 cells transduced with BacMam virus
T1 sequence (Q9HBA0 whole entry): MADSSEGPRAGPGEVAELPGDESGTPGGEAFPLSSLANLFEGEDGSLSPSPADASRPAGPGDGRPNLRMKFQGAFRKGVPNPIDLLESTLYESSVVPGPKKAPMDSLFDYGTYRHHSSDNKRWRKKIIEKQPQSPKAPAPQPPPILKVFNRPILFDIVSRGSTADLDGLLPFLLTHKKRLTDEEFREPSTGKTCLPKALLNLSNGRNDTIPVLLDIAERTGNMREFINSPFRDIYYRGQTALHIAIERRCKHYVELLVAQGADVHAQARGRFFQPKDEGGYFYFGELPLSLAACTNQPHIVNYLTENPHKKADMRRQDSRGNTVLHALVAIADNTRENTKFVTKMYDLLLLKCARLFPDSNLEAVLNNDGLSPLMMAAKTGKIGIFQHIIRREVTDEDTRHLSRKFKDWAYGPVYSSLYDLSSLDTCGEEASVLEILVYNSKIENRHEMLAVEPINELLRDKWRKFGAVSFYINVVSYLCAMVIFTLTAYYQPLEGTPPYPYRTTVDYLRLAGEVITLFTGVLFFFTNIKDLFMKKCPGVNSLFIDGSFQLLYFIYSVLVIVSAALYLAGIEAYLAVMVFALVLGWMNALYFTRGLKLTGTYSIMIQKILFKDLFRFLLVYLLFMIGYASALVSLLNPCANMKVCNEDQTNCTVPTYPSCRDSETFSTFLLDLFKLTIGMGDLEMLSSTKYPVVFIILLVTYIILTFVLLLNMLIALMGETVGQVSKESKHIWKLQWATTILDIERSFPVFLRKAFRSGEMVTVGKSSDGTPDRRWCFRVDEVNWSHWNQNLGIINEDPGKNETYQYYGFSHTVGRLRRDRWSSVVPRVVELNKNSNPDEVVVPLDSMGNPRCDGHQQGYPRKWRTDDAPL
Briefly: FLIPR assay for hTRPV4 expressed in BHK cells: inhibition of Agonist Compound-induced calcium signal. It is filed as cell-based. As to conditions: hTRPV4 in BHK/AC9 cells, FLIPR calcium signal, agonist at EC80; reported as range class; read-out: IC50. In a few lines:
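BHK/AC9 cells transduced with BacMam human TRPV4 (MOI 78), plated 15,000 per well and cultured 24 h at 37° C. Loaded with 2 μM Fluo-4 AM plus 500 μM Brilliant Black in HBSS for 1-1.5 h at room temperature in the dark; intracellular calcium signal read by FLIPR fluorescence.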
Usually IC50 stands for the concentration needed to halve the response being measured. Regarding `C[C@@H](N)[C@]1(O)CN(S(=O)(=O)c2ccc(Cl)cn2)C[C@@H]1Oc1ccc(C#N)c(F)c1` [Example 256, 4-(((3S,4R)-4-((R)-1-aminoethyl)-1-((5-chloropyridin-2-yl)sulfonyl)-4-hydroxypyrrolidin-3-yl)oxy)-2-fluorobenzonitrile, 2,2,2-trifluoroacetate], the 50% inhibitory concentration (IC50) lay within 10 to 100 nM.

With `C[C@H](N)[C@]1(O)CN(S(=O)(=O)c2ccc(Cl)cn2)C[C@@H]1Oc1ccc(C#N)c(F)c1` [Example 257, 4-(((3S,4R)-4-((S)-1-aminoethyl)-1-((5-chloropyridin-2-yl)sulfonyl)-4-hydroxypyrrolidin-3-yl)oxy)-2-fluorobenzonitrile, 2,2,2-trifluoroacetate], the half-inhibitory concentration (IC50) is 10 to 100 nM.

On to `N#Cc1ccc(O[C@H]2CN(S(=O)(=O)c3ccc(OC(F)(F)F)cc3C#N)C[C@@]2(O)CO)cc1F` [compound 232, 4-(((3S,4R)-1-((2-cyano-4-(trifluoromethoxy)phenyl)sulfonyl)-4-hydroxy-4-(hydroxymethyl)pyrrolidin-3-yl)oxy)-2-fluorobenzonitrile], for which the IC50 was in the range of 0.1 to 10 nM.

Regarding `N#Cc1ccc(O[C@H]2CN(S(=O)(=O)c3ccc(Cl)cc3C#N)C[C@@]23CNCCO3)cc1F` [compound 253], the half-inhibitory concentration (IC50) fell in the range of 0.1 to 10 nM.
